Assay results: ChEMBL document CHEMBL1136037, “Novel benzthiodiazepinones as antiherpetic agents: SAR improvement of therapeutic index by alterations of the seven-membered ring” (Bioorg Med Chem Lett, 2002)
pEC50: −log10 of the molar value.

Columns and labels:
Human alphaherpesvirus 1 = assay: Inhibitory concentration against herpes simplex virus (HSV-1-lacZ) replication
[1] = Toxic concentration against uninfected cells and their ability to generate XTT formazan; assay type: ADME, cell-based; settings: read-out: TC50 (the source's name)
[2] = Therapeutic index; settings: read-out: Therapeutic index

SMILES	pEC50 (Human alphaherpesvirus 1)	CC50 [1]	selectivity ratio [2]
COc1ccc2sc3c(c2c1)N(Cc1ccccc1C)CCNC3=O	7.68	25000 nM	1200
COc1ccc2sc3c(c2c1)NC[C@@H](C)NC3=O	7.70	1000 nM	50
COc1ccc(CN2CCNC(=O)c3sc4ccc(OC)cc4c32)cc1	7.92	10000 nM	830
COc1ccc2sc3c(c2c1)N(Cc1ccc(Cl)cc1)CCNC3=O	7.40	12000 nM	300
COc1ccc2sc3c(c2c1)NCCNC3=O	6.89	4500 nM	35
COc1ccc2sc3c(c2c1)N(Cc1ccc(C)cc1)CCNC3=O	7.52	11000 nM	360
COc1ccc2sc3c(c2c1)NC[C@H](C(C)C)NC3=O	7.22	4000 nM	67
COc1cccc(CN2C[C@H](C)NC(=O)c3sc4ccc(OC)cc4c32)c1	7.70	11000 nM	550
COc1ccc2sc3c(c2c1)N[C@@H](C)CNC3=O	7.30	2000 nM	40
COc1ccc2sc3c(c2c1)NC[C@H](C)NC3=O	6.77	6000 nM	35
COc1ccc2sc3c(c2c1)N(Cc1cccc(C)c1)CCNC3=O	8.30	12000 nM	2400
C=CCN1CCNC(=O)c2sc3ccc(OC)cc3c21	9.00	1750 nM	1750
COc1cccc(CN2C[C@H](Cc3ccccc3)NC(=O)c3sc4ccc(OC)cc4c32)c1	7.05	6000 nM	67
COc1ccc2sc3c(c2c1)N[C@H](C)CNC3=O	6.89	7000 nM	54

More lines, in order of rising pEC50 (Human alphaherpesvirus 1), values ahead:

pEC50 (Human alphaherpesvirus 1)	SMILES	CC50 [1]	selectivity ratio [2]
5.59	COc1ccc2sc3c(c2c1)[S+]([O-])CCNC3=O (centres undefined)	25800 nM	10
6.35	COc1cccc(CN2C[C@@H](Cc3ccccc3)NC(=O)c3sc4ccc(OC)cc4c32)c1	4000 nM	9
6.36	COc1ccc2sc3c(c2c1)N(C)CCNC3=O	12500 nM	28
6.41	COc1ccc2sc3c(c2c1)NC[C@@H](CC(C)C)NC3=O	7000 nM	18
6.47	COc1ccc2sc3c(c2c1)NC[C@@H](Cc1ccccc1)NC3=O	10000 nM	29
6.55	COc1ccc2sc3c(c2c1)NC[C@H](Cc1ccccc1)NC3=O	1900 nM	7
6.68	COc1ccc2sc3c(c2c1)OCCNC3=O	13100 nM	60
6.90	COc1ccc2sc3c(c2c1)SCCNC3=O	7600 nM	60
7.05	COc1ccc2sc3c(c2c1)N[C@H](Cc1ccccc1)CNC3=O	1400 nM	16
7.05	COc1ccc2sc3c(c2c1)NC[C@@H](C(C)C)NC3=O	3300 nM	37
7.30	COc1ccc2sc3c(c2c1)N(Cc1ccc([N+](=O)[O-])cc1)CCNC3=O	25000 nM	500
7.52	COc1cccc(CN2C[C@@H](C)NC(=O)c3sc4ccc(OC)cc4c32)c1	3400 nM	170
7.70	COc1ccc2sc3c(c2c1)NC[C@H](CC(C)C)NC3=O	2000 nM	100
8.00	COc1ccc2sc3c(c2c1)N[C@@H](Cc1ccccc1)CNC3=O	1100 nM	110
8.10	COc1ccc2sc3c(c2c1)N(Cc1ccccc1Cl)CCNC3=O	12000 nM	1500
8.30	COc1ccc2sc3c(c2c1)N(Cc1cccc(Cl)c1)CCNC3=O	20000 nM	4000
8.30	COc1ccc2sc3c(c2c1)N(Cc1ccccc1)CCNC3=O	8000 nM	1600
8.40	COc1ccc2sc3c(c2c1)N(Cc1cccc([N+](=O)[O-])c1)CCNC3=O	25000 nM	6250
9.40	COc1cccc(CN2CCNC(=O)c3sc4ccc(OC)cc4c32)c1	10000 nM	25000
